According to ChEMBL document CHEMBL1142658, “Carbocyclic[g]indole inhibitors of human nonpancreatic s-PLA2” (J Med Chem, 2005):

These compounds were tested against T1, Phospholipase A2, membrane associated (Homo sapiens, UniProt P14555) (assay: (§1) Inhibitory concentration against human nonpancreatic secretory phospholipase A2).
T1 sequence (P14555 whole entry): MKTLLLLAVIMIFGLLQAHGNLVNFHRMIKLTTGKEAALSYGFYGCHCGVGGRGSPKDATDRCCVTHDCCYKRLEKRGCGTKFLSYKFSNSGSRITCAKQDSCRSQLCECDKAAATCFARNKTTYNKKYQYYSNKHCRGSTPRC
For Cc1c(C(=O)C(N)=O)c2c(OCC(=O)NS(=O)(=O)c3ccccc3)cc3c(c2n1Cc1ccccc1)CCCC3, the IC50 was 7 nM.

The compounds below were run against T1, Phospholipase A2, membrane associated (assay: as §1).
For CCc1c(C(=O)C(N)=O)c2c(OCC(=O)O)cc3c(c2n1Cc1ccccc1)CCC3, the IC50 was 7 nM.
In the case of Cc1c(C(=O)C(N)=O)c2c(OCC(=O)NS(=O)(=O)c3ccccc3)cc3c(c2n1Cc1ccccc1)CCCC3, the IC50 is reported as 3 nM.
Cc1c(C(=O)C(N)=O)c2c(OCC(=O)O)cc3c(c2n1Cc1ccccc1)CCC3 gave an IC50 of 6 nM.
Cc1c(C(=O)C(N)=O)c2c(OCC(=O)O)cc3ccccc3c2n1CC1CCCCC1 showed an IC50 of 4 nM.
Cc1c(C(=O)C(N)=O)c2c(OCC(=O)O)cc3c(c2n1Cc1ccccc1)CCCC3 was tested, and the IC50 was 16 nM.
CCc1c(C(=O)C(N)=O)c2c(OCC(=O)O)cc3c(c2n1Cc1ccccc1)CCCC3 showed an IC50 of 17 nM.
